These are literature values, as cited in patent publication US20060153823A1, “Compositions and methods for nutritional supplementation” (Everett Laboratories, Inc., priority 2005, published 2006).

Data set [1] concerns patients with hypertension.
The test system of data set [2] is patients with congestive heart failure.
Data set [3] deals with patients with ischemic heart disease.
The test system of data set [4] is patients with cardiomyopathy.

`Nc1nc2ncc(CNc3ccc(C(=O)N[C@@H](CCC(=O)O)C(=O)O)cc3)nc2c(=O)[nH]1` [folic acid]: the “levels and functioning of nitric oxide (NO)” value in the data set with nitric oxide (NO) is “improves the levels and functioning”.
Consider `COC1=C(OC)C(=O)C(C/C=C(\C)CC/C=C(\C)CC/C=C(\C)CC/C=C(\C)CC/C=C(\C)CC/C=C(\C)CC/C=C(\C)CC/C=C(\C)CC/C=C(\C)CCC=C(C)C)=C(C)C1=O` [CoQ10, coenzyme Q10], for which, in data set [1], the blood pressure entry was “significantly reduce blood pressure”. Further, in data set [2], the blood pressure result is recorded as “reduce blood pressure”, the myocardial metabolic function result is given as “improve myocardial metabolic function” and the myocardial thickness result was “reduce myocardial thickness”. In data set [3], the “magnitude and rate of clinical improvement” value is “enhances both the magnitude and rate of clinical improvement”. Also, in data set [4], the “cardiac function including ejection fraction and cardiac output” value was “significant improvement in cardiac function”.
